{
  "source": "patent US12303531B2",
  "about": "“Molecular complex assembly particles comprising bis-R1,R2-dithiocarbamate-metal complex and a ligand, method of preparation and use thereof” (priority 2018, dated 2025)",
  "origin": "cited, not measured here",
  "data": [
    {"smiles": "CCN(CC)C(=S)[S-].CCN(CC)C(=S)[S-].[Cu+2]", "note": "[bis(diethyldithiocarbamate)copper(II)]", "values": [
      {"measurement": "solubility constant in water", "value": "in the range of nanograms per litre"}
    ]}
  ]
}
